Converted amounts (≈) assume the structure as drawn.
Key:
[1] = Effect of cyclodextrins on the aqueous solubility of BIRB 796; assay type: physicochemical; conditions: for solubility: aqueous
Procedure: Complexing cyclodextrin agents were evaluated as a means to improve the solubility of BIRB 796. The solubility of BIRB 796 was evaluated as a function of the concentrations of underivatized parent β-cyclodextrin (BCD), the alkylated derivatives […]. The results of Table 1 with respect to the solubility of BIRB 796 as a function of HPBCD concentration are illustrated in FIG. 1, and the results of Table 1 with respect to the solubitlity of BIRB 796 as a function of SBECD concentration are shown in FIG. 2.

[2] = Stability of BIRB 796 in PEG 400 as function of temperature, storage atmosphere and light exposure; assay type: physicochemical; conditions: for kobs / t90: PEG 400, C0 = 30 mg/mL; for half-life at 30 mg/mL: solution in PEG 400, PEG 400, C0 = 30 mg/mL
Procedure: The stability of BIRB 796 in PEG 400 was evaluated. An initial BIRB 796 concentration of approximately 30 mg/mL was prepared and the percent of BIRB 796 remaining in the PEG 400 solvent evaluated over an approximately two week time frame for differing conditions. The PEG 400-BIRB 796 mixture was kept under several different conditions: (1) at room temperature (about 23° C.) in ambient air in the dark; (2) at room temperature (about 23° C.) in ambient air in the light; (3) at 40° C. in ambient air; (4) at 40° C. in ambient air, the mixture being imbued with 0.1% sodium metabisulfite, an antioxidant; (5) at 60° C. in ambient air; (6) at 60° C. in an oxygen atmosphere; and (7) at 60° C. in a nitrogen atmosphere.
Rate constants were calculated using linear regression analysis of the data.

[3] = tested on: proinflammatory cytokines, such as tumor necrosis factor (TNF) and interleukin-1 (IL-1); conditions: disclosed in PCT/US99/29165; cited from earlier work
[4] = BIRB 796 binding to cyclodextrin (binding isotherm from solubility data), HPBCD; assay type: physicochemical
Procedure: (§1) The binding affinity for the BIRB 796 interaction with the ligands was evaluated in the following manner:
(§2) where Lt (ligand) is the total HPBCD or SBECD concentration, St is the solubility of BIRB 796 in the presence of ligand, So is the solubility in the absence of ligand, K11 is the binding constant for the 1:1 complex and K12 is the binding constant for the 1:2 complex. Upon rearrangement, these two equations simplify to the following linear equation: [formula]
(§3) A plot of [L]t vs. (StSo)/[Lt] yields the binding affinity according to the above equation.
(§4) FIG. 3 illustrates the binding analysis for the interaction between BIRB 796 and HPBCD at different concentrations. FIG. 4 illustrates the binding analysis for the interaction between BIRB 796 and SBECD at different concentrations. The binding constants were obtained through the slope and intercept values.

[5] = BIRB 796 binding to cyclodextrin (binding isotherm from solubility data), SBECD; assay type: physicochemical
Procedure: as §1, §2, §3, §4

[6] = Solubility and/or stability of BIRB 796 in pharmaceutically-acceptable solvents; assay type: physicochemical; conditions: 30% PEG 400, 40% PG/10% ethanol or aqueous buffer solutions at any pH
[7] = 40° C., 0.1% sodium metabisulfite

solubility ([1]; aqueous cyclodextrin solution, aqueous with cosolvent or surfactant or cyclodextrin, BCD 0.7 % w/v): 44 µg/mL (≈ 83.4 µM) | solubility ([1]; aqueous cyclodextrin solution, aqueous with cosolvent or surfactant or cyclodextrin, BCD 1.4 % w/v): 74 µg/mL (≈ 140 µM) | solubility ([1]; aqueous cyclodextrin solution, aqueous with cosolvent or surfactant or cyclodextrin, BCD 2 % w/v): 87 µg/mL (≈ 165 µM) | solubility ([1]; aqueous cyclodextrin solution, aqueous with cosolvent or surfactant or cyclodextrin, HPBCD 1 % w/v): 24 µg/mL (≈ 45.5 µM) | solubility ([1]; aqueous cyclodextrin solution, aqueous with cosolvent or surfactant or cyclodextrin, HPBCD 2.5 % w/v): 49 µg/mL (≈ 92.9 µM) | solubility ([1]; aqueous cyclodextrin solution, aqueous with cosolvent or surfactant or cyclodextrin, HPBCD 5 % w/v): 137 µg/mL (≈ 260 µM) | solubility ([1]; aqueous cyclodextrin solution, aqueous with cosolvent or surfactant or cyclodextrin, HPBCD 10 % w/v): 233 µg/mL (≈ 442 µM) | solubility ([1]; aqueous cyclodextrin solution, aqueous with cosolvent or surfactant or cyclodextrin, HPBCD 25 % w/v): 1540 µg/mL (≈ 2910 µM) | solubility ([1]; aqueous cyclodextrin solution, aqueous with cosolvent or surfactant or cyclodextrin, SBECD 1 % w/v): 21 µg/mL (≈ 39.8 µM) | solubility ([1]; aqueous cyclodextrin solution, aqueous with cosolvent or surfactant or cyclodextrin, SBECD 2.5 % w/v): 85 µg/mL (≈ 161 µM) | solubility ([1]; aqueous cyclodextrin solution, aqueous with cosolvent or surfactant or cyclodextrin, SBECD 5 % w/v): 156 µg/mL (≈ 296 µM) | solubility ([1]; aqueous cyclodextrin solution, aqueous with cosolvent or surfactant or cyclodextrin, SBECD 10 % w/v): 371 µg/mL (≈ 703 µM) | solubility ([1]; aqueous cyclodextrin solution, aqueous with cosolvent or surfactant or cyclodextrin, SBECD 25 % w/v): 2170 µg/mL (≈ 4120 µM) | solubility ([1]; aqueous solution without cyclodextrin, SBECD 0 % w/v): 0.5 µg/mL (≈ 0.948 µM) | solubility ([1]; aqueous solution without cyclodextrin, no cyclodextrin (0 % w/v)): 3.3 µg/mL (≈ 6.25 µM) | BIRB 796 solubilized by SBECD, more than by HPBCD ([1]; highest cyclodextrin concentration evaluated (25% w/v)): approximately 40% | kobs ([2]; 23° C., air (dark)): -0.00253 day⁻¹ | t90 ([2]; 23° C., air (dark)): 41.5 days | kobs ([2]; 23° C., air, light): -0.0078 day⁻¹ | t90 ([2]; 23° C., air, light): 13.5 days | kobs [2, 7]: -0.0161 day⁻¹ | t90 [2, 7]: 6.52 days | kobs ([2]; 40° C., air): -0.0192 day⁻¹ | t90 ([2]; 40° C., air): 5.47 days | kobs ([2]; 60° C., N2): -0.0552 day⁻¹ | t90 ([2]; 60° C., N2): 1.90 days | kobs ([2]; 60° C., O2): -0.0772 day⁻¹ | t90 ([2]; 60° C., O2): 1.36 days | kobs ([2]; 60° C., air): -0.0587 day⁻¹ | t90 ([2]; 60° C., air): 1.79 days | degradation rate under constant light relative to dark ([2]; PEG 400, room temperature (about 23° C.), ambient air): approximately three-times as fast | decomposition in PEG 400 ([2]; over two weeks, 23° C.): significant decomposition was observed | half-life at 30 mg/mL ([2]; 23° C., air (dark)): 274 days | half-life at 30 mg/mL ([2]; 23° C., air, light): 88.8 days | half-life at 30 mg/mL [2, 7]: 43 days | half-life at 30 mg/mL ([2]; 40° C., air): 36.1 days | half-life at 30 mg/mL ([2]; 60° C., N2): 12.6 days | half-life at 30 mg/mL ([2]; 60° C., O2): 8.98 days | half-life at 30 mg/mL ([2]; 60° C., air): 11.8 days | Binding Constants K1:1 ([4]; 1:1 complex with HPBCD): 675 M⁻¹ | Binding Constants K1.2 ([4]; 1:2 complex with HPBCD): 17.5 M⁻¹ | Binding Constants K1:1 ([5]; 1:1 complex with SBECD): 8337 M⁻¹ | Binding Constants K1.2 ([5]; 1:2 complex with SBECD): 29.1 M⁻¹
SMILES: Cc1ccc(-n2nc(C(C)(C)C)cc2NC(=O)Nc2ccc(OCCN3CCOCC3)c3ccccc23)cc1 [BIRB 796, 1-(5-tert-butyl-2-p-tolyl-2H-pyrazol-3-yl)-3-[4-(2-morpholin-4-yl-ethoxy)-naphthalen-1-yl]-urea]
inhibitory activity with respect to proinflammatory cytokines [3]: unexpectedly significant inhibitory activity | binding affinity of SBECD for BIRB 796 compared with HPBCD ([5]; SBECD versus HPBCD, Table 2): approximately an order of magnitude higher binding affinity | solubility and/or stability [6]: can not achieve a desirable solubility and/or stability

Reference: patent US20030068340A1, “Parenteral formulations of 1-(5-tert-butyl-2-p-tolyl-2H-pyrazol-3-yl)-3-[4-(2-morpholin-4-yl-ethoxy)-naphthalen-1-yl]-urea” (Boehringer Ingelheim Pharmaceuticals, Inc., priority 2001, published 2003)
